Source: PubChem BioAssay (NCI)
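Cultured in 96-well plates, cells were exposed to test compound for 48 hours across five concentrations. Abbreviation: GI50, concentration required for 50% inhibition of growth. TGI denotes the concentration required for complete inhibition of growth.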

Experiments:
Assay in all cases: DTP human tumour cell line panel, 48 h
786-0 renal = tested on: 786-0 renal
HS 578T breast = tested on: HS 578T breast
IGROV1 ovarian = tested on: IGROV1 ovarian
K-562 leukemia = tested on: K-562 leukemia
M14 melanoma = tested on: M14 melanoma
NCI-H226 lung = tested on: NCI-H226 lung
OVCAR-3 ovarian = tested on: OVCAR-3 ovarian
RPMI-8226 leukemia = tested on: RPMI-8226 leukemia
SK-MEL-2 melanoma = tested on: SK-MEL-2 melanoma
SW-620 colon = tested on: SW-620 colon

Compound	GI50 (786-0 renal)	TGI (786-0 renal)	GI50 (HS 578T breast)	TGI (HS 578T breast)	GI50 (IGROV1 ovarian)	TGI (IGROV1 ovarian)	GI50 (K-562 leukemia)	TGI (K-562 leukemia)	GI50 (M14 melanoma)	TGI (M14 melanoma)	GI50 (NCI-H226 lung)	TGI (NCI-H226 lung)	GI50 (OVCAR-3 ovarian)	TGI (OVCAR-3 ovarian)	GI50 (RPMI-8226 leukemia)	TGI (RPMI-8226 leukemia)	GI50 (SK-MEL-2 melanoma)	TGI (SK-MEL-2 melanoma)	GI50 (SW-620 colon)	TGI (SW-620 colon)
O=[N+]([O-])c1ccc(Oc2nc(Nc3ccc(O[C@H]4CO[C@H]5[C@@H]4OC[C@@H]5O)c(Cl)c3)ncc2F)c(Cl)c1	1.3 µM	4.24 µM	0.516 µM	3.43 µM	0.493 µM	2.77 µM	1.31 µM	13.3 µM	0.565 µM	1.93 µM	0.73 µM	2.5 µM	1.4 µM	5.83 µM	0.61 µM	2.56 µM	0.483 µM	2.04 µM	1.38 µM	12.6 µM
O=C(O)C1CCCCC1c1c2ccc(=O)c(O)c-2oc2c(O)c(O)ccc12 (stereo not given)	–	46.2 µM	–	> 100 µM	–	> 100 µM	–	60.6 µM	–	> 100 µM	–	71.5 µM	–	> 100 µM	–	69.7 µM	–	> 100 µM	–	47.7 µM
FC(F)(F)c1ccc(-c2cnc(-n3cc(COCCN4CCCCC4)nn3)nc2NC2CCCCCC2)cc1	3.73 µM	7.28 µM	3.91 µM	10.6 µM	3.9 µM	10.2 µM	1.75 µM	7.21 µM	4.34 µM	9.01 µM	3.54 µM	7.83 µM	3.98 µM	7.48 µM	3.85 µM	9.03 µM	4.42 µM	8.22 µM	3.79 µM	7.95 µM
COc1ccc(S(=O)(=O)NC2=NCCN2C(=S)SN2CCn3c2nsc3=S)cc1	20.2 µM	35.4 µM	20.8 µM	54.2 µM	30.6 µM	> 100 µM	28.1 µM	> 100 µM	14.9 µM	31 µM	15.6 µM	33.2 µM	15.5 µM	37.4 µM	14 µM	63.1 µM	17.6 µM	51.3 µM	14.1 µM	27.8 µM
O=[N+]([O-])c1ccc(C2CC(c3ccccc3Cl)=Nc3ccccc3S2=O)cc1 (stereo not given)	–	3.31 µM	–	7.46 µM	–	8.57 µM	–	4.57 µM	–	20.7 µM	–	17.6 µM	–	8.12 µM	–	4.19 µM	–	51.7 µM	–	3.91 µM
Cc1ccc(C(NC(=O)c2ccccc2)c2ccc3cccnc3c2O)cc1 (stereo not given)	0.301 µM	1.81 µM	1.25 µM	> 74.7 µM	0.352 µM	4.95 µM	0.349 µM	90 µM	0.244 µM	2.38 µM	0.302 µM	3.69 µM	0.351 µM	18.2 µM	0.323 µM	17.8 µM	0.608 µM	10.3 µM	0.431 µM	> 43.5 µM
COc1cc2c(cc1OC)C(Sc1ccc(SC)cc1)c1c(nc(N)c(C#N)c1N)O2 (stereo not given)	1.53 µM	2.85 µM	2.01 µM	4.52 µM	1.23 µM	3.24 µM	1.74 µM	5.59 µM	1.74 µM	3.24 µM	1.64 µM	3.04 µM	1.62 µM	3.06 µM	2.54 µM	6.46 µM	1.48 µM	2.9 µM	1.92 µM	3.97 µM
Oc1ccc(O)c(-c2cc(-c3ccc(Cl)cc3)nn2-c2ccccc2)c1	2.21 µM	5.4 µM	3.43 µM	29.8 µM	9.95 µM	> 100 µM	3.23 µM	12.1 µM	2.89 µM	6.53 µM	5.97 µM	24.3 µM	14.5 µM	30.7 µM	2.29 µM	7.03 µM	23.4 µM	> 100 µM	3.81 µM	18.4 µM
Clc1ccc(-c2nnc(-c3cccc4ccccc34)o2)cc1Cl	–	> 100 µM	–	> 100 µM	–	53.9 µM	–	> 100 µM	–	> 100 µM	–	> 100 µM	–	> 100 µM	–	> 100 µM	–	> 100 µM	–	> 100 µM
Nc1cc(O)ccc1N=Nc1ccc(-c2nc3ccccc3[nH]2)cc1	77.2 µM	> 100 µM	72.1 µM	> 100 µM	19.7 µM	> 100 µM	23 µM	> 100 µM	> 100 µM	> 100 µM	> 100 µM	> 100 µM	13.7 µM	49.6 µM	30.2 µM	94.6 µM	45.1 µM	> 100 µM	52.9 µM	> 100 µM
CCN(Cc1ccc(F)cc1)c1ccc(CO)c(C)c1	13 µM	29.5 µM	11.7 µM	64.8 µM	1.25 µM	6.16 µM	9.03 µM	> 72.5 µM	14.3 µM	37.6 µM	0.291 µM	1.12 µM	11.1 µM	24.1 µM	6.69 µM	37.1 µM	7.58 µM	22.8 µM	14.5 µM	54.1 µM
